Tests used:
Assay in all cases: relative viability (nuclei count vs DMSO), 5 days (fraction); higher = more cells survive
[1] = compound: CC(C)(C)c1nc(-c2cccc(NS(=O)(=O)c3c(F)cccc3F)c2F)c(-c2ccnc(N)n2)s1 [Dabrafenib] + CCNC(=O)c1noc(-c2cc(C(C)C)c(O)cc2O)c1-c1ccc(CN2CCOCC2)cc1 [Luminespib] (partner 0.01 µM)
Outline: (§1)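 Cells from lung cancer lines were seeded into 1536-well plates and, one day later, dosed by pin tool. Treatments were either a single drug or a fixed dose of an anchor drug with five library-drug doses (not always all listed) in √10 steps. After 5 days, nuclei were stained in a one-step fixation (final 0.05% Triton X-100, 1% formaldehyde, 1 ug/ml Hoechst) and counted on 4× images, and relative viability is the treated-to-vehicle nuclei ratio, as the median of duplicate plates.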

[2] = compound: CC(C)(C)c1nc(-c2cccc(NS(=O)(=O)c3c(F)cccc3F)c2F)c(-c2ccnc(N)n2)s1 [Dabrafenib] + CS(=O)(=O)N1CCN(Cc2cc3nc(-c4cccc5[nH]ncc45)nc(N4CCOCC4)c3s2)CC1 [Pictilisib] (partner 1 µM)
Outline: as §1

[3] = compound: NC(=O)c1ccc(N(C(N)=O)c2c(F)cccc2F)nc1-c1ccc(F)cc1F [VX-702] + COc1cccc2cc(-c3nc([C@H]4CC[C@H](C(=O)O)CC4)n4ncnc(N)c34)[nH]c12 [OSI-027] (partner 0.5 µM)
Outline: as §1

[4] = compound: NC(=O)c1ccc(N(C(N)=O)c2c(F)cccc2F)nc1-c1ccc(F)cc1F [VX-702] + NC(=O)Nc1cc(-c2cccc(F)c2)sc1C(=O)N[C@H]1CCCNC1 [AZD7762] (partner 0.2 µM)
Outline: as §1

## A-427
[1]; first compound 0.009487 µM
  relative viability: 1
[1]; first compound 0.03 µM
  relative viability: 0.772
[1]; first compound 0.09487 µM
  relative viability: 0.744
[1]; first compound 0.3 µM
  relative viability: 1.14
[2]; first compound 0.009487 µM
  relative viability: 0.611
[2]; first compound 0.03 µM
  relative viability: 0.769
[2]; first compound 0.09487 µM
  relative viability: 0.522
[2]; first compound 0.3 µM
  relative viability: 0.675
[3]; first compound 0.02 µM
  relative viability: 0.4
[3]; first compound 0.2 µM
  relative viability: 0.447
[3]; first compound 0.6325 µM
  relative viability: 0.427
[3]; first compound 2 µM
  relative viability: 0.352
[4]; first compound 0.02 µM
  relative viability: 0.742
[4]; first compound 0.2 µM
  relative viability: 0.699
[4]; first compound 0.6325 µM
  relative viability: 0.661
[4]; first compound 2 µM
  relative viability: 0.738

## NCI-H3122
[1]; first compound 0.003 µM
  relative viability: 0.0822
[1]; first compound 0.009487 µM
  relative viability: 0.0926
[1]; first compound 0.03 µM
  relative viability: 0.0643
[1]; first compound 0.09487 µM
  relative viability: 0.131
[1]; first compound 0.3 µM
  relative viability: 0.0575
[2]; first compound 0.003 µM
  relative viability: 0.581
[2]; first compound 0.009487 µM
  relative viability: 0.629
[2]; first compound 0.03 µM
  relative viability: 0.793
[2]; first compound 0.09487 µM
  relative viability: 0.692
[2]; first compound 0.3 µM
  relative viability: 0.719
[3]; first compound 0.02 µM
  relative viability: 0.922
[3]; first compound 0.2 µM
  relative viability: 0.874
[3]; first compound 0.6325 µM
  relative viability: 0.917
[3]; first compound 2 µM
  relative viability: 1.05
[4]; first compound 0.02 µM
  relative viability: 1.07
[4]; first compound 0.2 µM
  relative viability: 1.05
[4]; first compound 0.6325 µM
  relative viability: 1.03
[4]; first compound 2 µM
  relative viability: 1.01

## PC-14
[1]; first compound 0.009487 µM
  relative viability: 0.272
[1]; first compound 0.03 µM
  relative viability: 0.158
[1]; first compound 0.09487 µM
  relative viability: 0.149
[1]; first compound 0.3 µM
  relative viability: 0.115
[2]; first compound 0.003 µM
  relative viability: 0.761
[2]; first compound 0.009487 µM
  relative viability: 0.862
[2]; first compound 0.03 µM
  relative viability: 0.655
[2]; first compound 0.09487 µM
  relative viability: 0.688
[2]; first compound 0.3 µM
  relative viability: 0.696
[3]; first compound 0.02 µM
  relative viability: 0.893
[3]; first compound 0.2 µM
  relative viability: 0.966
[3]; first compound 0.6325 µM
  relative viability: 0.849
[3]; first compound 2 µM
  relative viability: 0.806
[4]; first compound 0.02 µM
  relative viability: 0.411
[4]; first compound 0.2 µM
  relative viability: 0.353
[4]; first compound 0.6325 µM
  relative viability: 0.37
[4]; first compound 2 µM
  relative viability: 0.265

## NCI-H1915
[1]; first compound 0.003 µM
  relative viability: 0.981
[1]; first compound 0.009487 µM
  relative viability: 0.706
[1]; first compound 0.03 µM
  relative viability: 0.61
[1]; first compound 0.09487 µM
  relative viability: 0.523
[1]; first compound 0.3 µM
  relative viability: 0.62
[2]; first compound 0.003 µM
  relative viability: 0.902
[2]; first compound 0.009487 µM
  relative viability: 1.06
[2]; first compound 0.03 µM
  relative viability: 0.862
[2]; first compound 0.09487 µM
  relative viability: 0.758
[2]; first compound 0.3 µM
  relative viability: 0.578
[3]; first compound 0.02 µM
  relative viability: 0.642
[3]; first compound 0.2 µM
  relative viability: 0.587
[3]; first compound 0.6325 µM
  relative viability: 0.595
[3]; first compound 2 µM
  relative viability: 0.67
[4]; first compound 0.02 µM
  relative viability: 0.697
[4]; first compound 0.2 µM
  relative viability: 0.728
[4]; first compound 0.6325 µM
  relative viability: 0.712
[4]; first compound 2 µM
  relative viability: 0.718

## NCI-H1793
[1]; first compound 0.009487 µM
  relative viability: 0.231
[1]; first compound 0.3 µM
  relative viability: 0.175
[2]; first compound 0.003 µM
  relative viability: 0.366
[2]; first compound 0.009487 µM
  relative viability: 0.313
[2]; first compound 0.03 µM
  relative viability: 0.329
[2]; first compound 0.09487 µM
  relative viability: 0.392
[2]; first compound 0.3 µM
  relative viability: 0.323
[3]; first compound 0.02 µM
  relative viability: 0.292
[3]; first compound 0.2 µM
  relative viability: 0.217
[3]; first compound 0.6325 µM
  relative viability: 0.235
[3]; first compound 2 µM
  relative viability: 0.218
[4]; first compound 0.02 µM
  relative viability: 0.663
[4]; first compound 0.6325 µM
  relative viability: 0.542
[4]; first compound 2 µM
  relative viability: 0.379

## NCI-H1650
[1]; first compound 0.003 µM
  relative viability: 0.172
[1]; first compound 0.009487 µM
  relative viability: 0.201
[1]; first compound 0.03 µM
  relative viability: 0.229
[1]; first compound 0.09487 µM
  relative viability: 0.221
[1]; first compound 0.3 µM
  relative viability: 0.188
[2]; first compound 0.003 µM
  relative viability: 0.401
[2]; first compound 0.009487 µM
  relative viability: 0.841
[2]; first compound 0.03 µM
  relative viability: 0.404
[2]; first compound 0.09487 µM
  relative viability: 0.647
[2]; first compound 0.3 µM
  relative viability: 0.814
[3]; first compound 0.02 µM
  relative viability: 0.635
[3]; first compound 0.2 µM
  relative viability: 0.652
[3]; first compound 0.6325 µM
  relative viability: 0.806
[3]; first compound 2 µM
  relative viability: 0.541

## CAL-12T
[1]; first compound 0.003 µM
  relative viability: 0.362
[1]; first compound 0.009487 µM
  relative viability: 0.517
[1]; first compound 0.03 µM
  relative viability: 0.408
[1]; first compound 0.09487 µM
  relative viability: 0.445
[1]; first compound 0.3 µM
  relative viability: 0.32
[2]; first compound 0.003 µM
  relative viability: 0.319
[2]; first compound 0.009487 µM
  relative viability: 0.392
[2]; first compound 0.03 µM
  relative viability: 0.395
[2]; first compound 0.09487 µM
  relative viability: 0.57
[2]; first compound 0.3 µM
  relative viability: 0.535
[3]; first compound 0.02 µM
  relative viability: 0.624
[3]; first compound 0.2 µM
  relative viability: 0.715
[3]; first compound 0.6325 µM
  relative viability: 0.661
[3]; first compound 2 µM
  relative viability: 0.506
[4]; first compound 0.02 µM
  relative viability: 0.517
[4]; first compound 0.2 µM
  relative viability: 0.644
[4]; first compound 0.6325 µM
  relative viability: 0.58
[4]; first compound 2 µM
  relative viability: 0.625

## NCI-H520
[1]; first compound 0.003 µM
  relative viability: 0.228
[1]; first compound 0.009487 µM
  relative viability: 0.213
[1]; first compound 0.03 µM
  relative viability: 0.21
[1]; first compound 0.09487 µM
  relative viability: 0.262
[1]; first compound 0.3 µM
  relative viability: 0.224
[2]; first compound 0.003 µM
  relative viability: 0.344
[2]; first compound 0.009487 µM
  relative viability: 0.295
[2]; first compound 0.03 µM
  relative viability: 0.237
[2]; first compound 0.09487 µM
  relative viability: 0.265
[2]; first compound 0.3 µM
  relative viability: 0.253
[3]; first compound 0.02 µM
  relative viability: 0.321
[3]; first compound 0.2 µM
  relative viability: 0.287
[3]; first compound 0.6325 µM
  relative viability: 0.268
[3]; first compound 2 µM
  relative viability: 0.23

## NCI-H1703
[2]; first compound 0.003 µM
  relative viability: 0.257
[2]; first compound 0.009487 µM
  relative viability: 0.255
[2]; first compound 0.03 µM
  relative viability: 0.225
[2]; first compound 0.09487 µM
  relative viability: 0.249
[2]; first compound 0.3 µM
  relative viability: 0.226
[4]; first compound 0.02 µM
  relative viability: 0.123
[4]; first compound 0.2 µM
  relative viability: 0.117
[4]; first compound 2 µM
  relative viability: 0.115

## Calu-6
[2]; first compound 0.003 µM
  relative viability: 0.968
[2]; first compound 0.009487 µM
  relative viability: 0.913
[2]; first compound 0.03 µM
  relative viability: 0.867
[2]; first compound 0.09487 µM
  relative viability: 0.715
[2]; first compound 0.3 µM
  relative viability: 0.694

## NCI-H1623
[1]; first compound 0.009487 µM
  relative viability: 0.534
[1]; first compound 0.03 µM
  relative viability: 0.479
[1]; first compound 0.09487 µM
  relative viability: 0.579
[1]; first compound 0.3 µM
  relative viability: 0.553
[3]; first compound 0.02 µM
  relative viability: 0.403
[3]; first compound 0.2 µM
  relative viability: 0.406
[3]; first compound 0.6325 µM
  relative viability: 0.424
[3]; first compound 2 µM
  relative viability: 0.43

## NCI-H522
[1]; first compound 0.009487 µM
  relative viability: 1.05
[1]; first compound 0.03 µM
  relative viability: 1.11
[1]; first compound 0.3 µM
  relative viability: 1.3
[3]; first compound 0.02 µM
  relative viability: 0.649
[3]; first compound 0.2 µM
  relative viability: 0.718
[3]; first compound 0.6325 µM
  relative viability: 0.681
[3]; first compound 2 µM
  relative viability: 0.747
[4]; first compound 0.02 µM
  relative viability: 0.92
[4]; first compound 0.2 µM
  relative viability: 0.833
[4]; first compound 0.6325 µM
  relative viability: 0.689
[4]; first compound 2 µM
  relative viability: 0.931
